Data taken from patent US12006330B2, “Substituted macrocyclic compounds and related methods of treatment” (Alkermes, Inc., priority 2020, dated 2024).

What was measured:
Type in all cases: in vitro ADME
[1] = test system: MDR1; test: MDCK-MDR1 permeability assay; conditions: dog, MDCK-MDR1, MDCK-MDR1 cells; for efflux ratio at 2 h, 3 μM: Papp B→A divided by Papp A→B, read-out: Efflux ratio (ER); for Papp A→B at 2 h, 3 μM: test compound 3 μM, 2 hours at 37 degrees C, apical to basolateral
Description: The bidirectional permeability (Apical to Basal and Basal to Apical directions) of test compounds in MDCK-MIDR1 cells were evaluated using MDCK-MIDR1 cells seeded in Solvo PreadyPort™ MDCK 96-well plate. Once the plate was received from ReadyCell (Barcelona, Spain), it was treated as per PreadyPort™ user's manual.
For the Apical to Basolateral (A→B) permeability, 80 μL of test compound (3 μM) co-dosed with LY (Lucifer Yellow) (100 μM) in HBSS (Hank's Balanced Salt Solution) assay buffer was added to the donor side (A) while 250 μL of HBSS buffer was added to the receiver side (B). For the Basolateral to Apical (B→A) permeability, 255 μL of test compound (3 μM) in HBSS assay buffer was added to the donor side (B) while 75 μL of HBSS buffer containing LY (100 μM) was added to the receiver side (A).
The plate was placed in an incubator set at 37 degrees C. After 10 minutes of pre-warming, 5 μL aliquot was taken from donor compartment and set aside as the dosing solution. The MDCK-MDR1 incubation plate was placed back into the incubator for 2 hours of incubation at 37 degrees C. After 2 hours of incubation, 25 μL and 5 μL aliquots were removed from the receiver and donor sides, respectively. To the 5 μL aliquots taken from the donor sides (before and after a 2-hour incubation) were diluted with 20 μL of the HBSS buffer. All samples were mixed with 150 μL with acetonitrile containing internal standard (IS) and 200 μL water, and analyzed by LC-MS/MS.
The apparent permeability (Papp) was calculated using the following formula: Papp=dQ/dt×1/A×C0 where: • dQ/dt: amount of translocated material over incubation time (nmol/s) • A: area of insert (0.14 cm^2 for PreadyPort™ MDR1-96) • C0: initial concentration of product applied in apical (A→B) or basal (B→A) compartment (nmol/mL)
The efflux ratio (ER) was measured by dividing the Papp (basolateral to apical direction) by Papp (apical to basolateral direction). It is a general measure of the involvement of active processes. An ER>2 is considered positive for active transport.
Percent recovery was measured using the following equation:
[formula] where: • VR: Volume of the receiver compartment (mL) • VD: Volume of the donor compartment (mL) • CN: Concentration of dosing solution (μM) collected after 10 minutes of incubation • CR^final: Receiver concentration at the end of the incubation (μM) • CD^final: Donor concentration at the end of the incubation (μM)
The data reported in Table 3 were obtained according to the MDCK-MDR1 permeability assay described above.

[2] = Hepatocytes stability assay (human hepatocytes); conditions: both sexes, human, cryopreserved hepatocytes, cryopreserved human hepatocytes (pool of 50 mixed gender); 1 μM test compound; 1×10^6 cell/mL; 37 degrees C; read-out: CLint (μL/min/million cells)
Description: (§1) In vitro metabolic stability was assessed using cryopreserved hepatocytes from male Sprague Dawley rats and a pool of 50 mixed gender humans (BioIVT, Baltimore, MD). The incubation mixtures were prepared by mixing 250 μL of pre-warmed KHB (Krebs-Henseleit buffer) containing 2×10^6 cell/mL of hepatocytes with 250 μL of pre-warmed KHB buffer containing 2 μM of test compounds in a 48-well plate, giving a final concentration of 1 μM test compound (0.1% DMSO) and 1×10^6 cell/mL of hepatocytes. The reaction mixture was incubated at 37 degrees C. A 50 μL aliquot of incubation mixture was taken at time points (0, 15, 30, 60, 120 and 240 minutes) and transferred into a 96-well plate containing 300 μL ice-cold acetonitrile (containing 30 ng/mL of labetalol and 10 ng/mL of Naltrexone-d3 as internal standards) and immediately placed in ice to terminate the reaction. Samples were centrifuged, and supernatants were transferred into 96-well plates for liquid chromatography with tandem mass spectrometry (LC-MS/MS) analysis to monitor the depletion of the test compound.
(§2) Data was calculated as percent remaining by assuming zero-minute time point peak area ratio (analyte/IS) as 100% and dividing remaining time point peak area ratios by zero-minute time point peak area ratio. Data were fitted to a first-order decay model to determine half-life. From a plot of log (ln) peak area against time, the slope of the line was determined. Subsequently, half-life (T1/2) and intrinsic clearance (CLint) were calculated using the equations below: Elimination rate constant (k)=(−slope) Half-life (T1/2) min=0.693/k Intrinsic Clearance (CLint) (mL/min/million cells)=(V×0.693)/T1/2 V=incubation volume mL/number of cells The in vitro T1/2 was converted to in vitro intrinsic clearance (CLint,hep) in units of mL/min/kg using the formula shown below:
(§3) [formula] The in vitro intrinsic clearance (CLint,hep) was scaled to in vivo hepatic clearance (CL,hep) using the following equation which was adapted from a well-stirred model.
(§4) [formula] where Q is the liver blood flow and fu is the fraction unbound (assumed to be unity in this case). All parameters used in the calculation are shown below (Table 4).
(§5) The extraction ratio (ER) was calculated by dividing the hepatic clearance of a compound to the liver blood flow. The data reported in Table 5 were obtained according to the human hepatocytes stability assay described above.

[3] = test system: human hepatocytes; test: Hepatocytes stability assay (human hepatocytes); conditions: human hepatocytes; scaled hepatic clearance divided by liver blood flow (well-stirred model, fu assumed unity)
Description: as §1, §2, §3, §4, §5

| Structure (SMILES) | efflux ratio at 2 h, 3 μM [1] | Papp A→B at 2 h, 3 μM [1] [×10⁻⁶ cm/s] | hepatocyte CLint at 1 μM [2] [µL/min/1e6 cells] | Extraction Ratio (ER) [3] |
| --- | --- | --- | --- | --- |
| Cc1cccc2c1[C@H]1CC[C@H](CC1)OCC1[C@@H](NS(=O)(=O)C3CC3)CCN1C(=O)CO2 (stereo in doubt) [Compound 70] | 4.2 | 3.7 | 45 | 0.87 |
| O=C1COc2ncccc2C2CCC(CC2)OC[C@H]2[C@@H](NS(=O)(=O)C3CC3)CCCN12 (stereo in doubt) [Compound 14] | > 100 | 0.3 | 20 | 0.75 |
| Cc1ccnc2c1[C@H]1CC[C@H](CC1)OCC1[C@@H](NS(=O)(=O)C3COC3)CCCN1C(=O)CO2 (stereo in doubt) [Compound 88] | 25 | 0.84 | 6.7 | 0.50 |
| Cc1cccc2c1OCC(=O)N1CCC[C@H](NS(C)(=O)=O)C1CO[C@H]1CC[C@@H]2CC1 (stereo in doubt) [Compound 37] | > 100 | 0.23 | 24 | 0.78 |
| CN(C)CCS(=O)(=O)N[C@H]1CCCN2C(=O)COc3ccccc3[C@H]3CC[C@H](CC3)OCC12 (stereo in doubt) [Compound 39] | > 100 | < 0.086 | 20 | 0.75 |
| CC(C)S(=O)(=O)N[C@H]1CCCN2CCOc3ncccc3[C@H]3CC[C@H](CC3)OCC12 (stereo in doubt) [Compound 64] | 1.2 | 12 | 46 | 0.87 |
| Cc1ccc2c(c1C)[C@H]1CC[C@H](CC1)OCC1[C@@H](NS(=O)(=O)C(C)C)CCCN1C(=O)CO2 (stereo in doubt) [Compound 76] | 28 | 0.57 | 9.8 | 0.59 |
| Cc1c(Cl)ccc2c1[C@H]1CC[C@H](CC1)OCC1[C@@H](NS(=O)(=O)C(C)C)CCCN1C(=O)CO2 (stereo in doubt) [Compound 28] | 92 | 0.43 | 3.8 | 0.36 |
| Cc1cccc2c1C1CCC(CC1)OC[C@H]1[C@@H](NS(=O)(=O)C3CC3)CCCN1C(=O)CO2 (stereo in doubt) [Compound 4] | 31 | 0.66 | 29 | 0.81 |
| O=C1COc2ccccc2C2CCC(CC2)OC[C@H]2[C@@H](NS(=O)(=O)CF)CCCN12 (stereo in doubt) [Compound 6] | 35 | 1 | 18 | 0.73 |
| CS(=O)(=O)N[C@H]1CCCN2C(=O)COc3ccc(C#N)cc3[C@H]3CC[C@H](CC3)OCC12 (stereo in doubt) [Compound 46] | 81 | 0.18 | 2.8 | 0.29 |
| CC(C)S(=O)(=O)N[C@H]1CCCN2C(=O)COc3ccc(Cl)cc3[C@H]3CC[C@H](CC3)OCC12 (stereo in doubt) [Compound 26] | > 100 | < 0.12 | 5.1 | 0.43 |

Further lines, results first:

| efflux ratio at 2 h, 3 μM [1] | Papp A→B at 2 h, 3 μM [1] [×10⁻⁶ cm/s] | hepatocyte CLint at 1 μM [2] [µL/min/1e6 cells] | Extraction Ratio (ER) [3] | Structure (SMILES) |
| --- | --- | --- | --- | --- |
| 7.4 | 0.92 | 36 | 0.84 | O=C1COc2ccccc2[C@H]2CC[C@H](CC2)OCC2[C@@H](NS(=O)(=O)C3CCC3)CCCN12 (stereo in doubt) [Compound 42] |
| 7.5 | 1.4 | 55 | 0.89 | CC1(S(=O)(=O)N[C@H]2CCCN3CCOc4ccccc4[C@H]4CC[C@H](CC4)OCC23)CC1 (stereo in doubt) [Compound 58] |
| > 100 | 0.2 | 6.1 | 0.47 | O=C1COc2ccc(Cl)cc2C2CCC(CC2)OC[C@H]2[C@@H](NS(=O)(=O)C3CC3)CCCN12 (stereo in doubt) [Compound 16] |
| 3.6 | 1.8 | 31 | 0.82 | CC1(S(=O)(=O)N[C@H]2CCCN3C(=O)COc4ccccc4C4CCC(CC4)OC[C@@H]23)CC1 (stereo in doubt) [Compound 8] |
| 2 | 5.2 | 38 | 0.85 | Cc1ccc2c(c1)[C@H]1CC[C@H](CC1)OCC1[C@@H](NS(C)(=O)=O)CCCN1CCO2 (stereo in doubt) [Compound 54] |
| 1.1 | 7.8 | 42 | 0.86 | O=S(=O)(N[C@H]1CCCN2CCOc3ccccc3[C@H]3CC[C@H](CC3)OCC12)C1CC1 (stereo in doubt) [Compound 51] |
| 29 | 1.3 | 22 | 0.77 | C=CS(=O)(=O)N[C@H]1CCCN2C(=O)COc3ccccc3C3CCC(CC3)OC[C@@H]12 (stereo in doubt) [Compound 5] |
| 6 | 1.7 | 65 | 0.91 | O=S(=O)(N[C@H]1CCCN2CCOc3ccccc3[C@H]3CC[C@H](CC3)OCC12)C1CCC1 (stereo in doubt) [Compound 57] |
| 72 | 0.35 | 6.3 | 0.48 | Cc1ccc2c(c1)C1CCC(CC1)OC[C@H]1[C@@H](NS(=O)(=O)C3CC3)CCCN1C(=O)CO2 (stereo in doubt) [Compound 13] |
| 1.4 | 7.5 | 44 | 0.87 | O=S(=O)(N[C@H]1CCCN2CCOc3ncccc3[C@H]3CC[C@H](CC3)OCC12)C1CC1 (stereo in doubt) [Compound 63] |
| 3.3 | 1.7 | 69 | 0.91 | CC(C)(C)S(=O)(=O)N[C@H]1CCCN2CCOc3ccccc3[C@H]3CC[C@H](CC3)OCC12 (stereo in doubt) [Compound 56] |
